Measured values reported in ChEMBL document CHEMBL2016486, “Synthesis of [Tyr-5-Ψ(CH2NMe)-Tyr-6]RA-VII, a reduced peptide bond analogue of RA-VII, an antitumor bicyclic hexapeptide” (Bioorg Med Chem Lett, 2012).
Values after ≈ are worked out from the molar mass of the structure shown.

Test system: P388
Assay: Cytotoxicity against mouse P388 cells
Type: functional, cell-based

Question: How did the IC50 turn out when `COc1ccc(C[C@H]2C(=O)N[C@@H](C)C(=O)N(C)[C@H]3Cc4ccc(cc4)Oc4cc(ccc4OC)C[C@@H](C(=O)N[C@H](C)C(=O)N[C@@H](C)C(=O)N2C)N(C)C3=O)cc1` was run?
Answer: 0.0043 µg/mL (≈ 0.00558 µM)

Question: `COc1ccc(C[C@H]2C(=O)N[C@@H](C)C(=O)N(C)[C@H]3Cc4ccc(cc4)Oc4cc(ccc4OC)C[C@@H](C(=O)N[C@H](C)C(=O)N[C@@H](C)C(=O)N2C)N(C)C3)cc1` was tested. Which IC50 did it give?
Answer: 5 µg/mL (≈ 6.61 µM)
